Assay results reported in patent US10800791B2, “Triazole ACC inhibitors and uses thereof” (Gilead Apollo, LLC, priority 2015, dated 2020).
≈ marks a conversion by molar mass, not a printed value. Where two headings read alike, the source gives them in different places.

What was measured:
[1] = target: human (hACC2) (Homo sapiens, UniProt O00763); test: In vitro ACC inhibition assay (ADP-Glo), hACC2; format: biochemical; details: 5 nM ACC2, 20 μM ATP, 20 μM acetyl-CoA
Procedure: The detailed procedure is as follows. […] 10 μL ADP glo reagent was added. […] 20 μL kinase detection reagent was added.

[2] = system: C. albicans; test: Antifungal Activity Assay (broth microtiter MIC), C. albicans; format: cell-based, Candida albicans; details: Candida albicans, ATCC90028, 48 h, ATCC 90028, 3 replicates, MIC recorded at 48 h, read-out: MIC, C. albicans ATCC 90028
Procedure: (§1) Compounds of the present invention were evaluated in an Antifungal Activity Assay. An exemplary procedure for the assay, which measures the susceptibility of various Candida species to antifungal compounds, follows. Compounds to be tested (including fluconazole and amphotericin B) were dissolved in DMSO to obtain a solution having a concentration of 1 mg/mL. These stock solutions were sterile filtered using a 0.22 um nylon syringe filter, then diluted in sterile water to achieve a final concentration of 128 μg/mL.
(§2) All species were grown from frozen stock by directly plating on to freshly prepared Sabouraud Dextrose agar (BD, Difco) and incubated overnight in ambient air at 35° C. for 24 h. A direct suspension was prepared in RPMI 1640+MOPS (Lonza, Biowhittaker) by taking individual colonies from the overnight cultures using sterile swabs soaked in sterile saline. The concentration of the suspension was determined using pre-determined standard curves. These suspensions were then diluted down to 5×10^3 CFU/mL to achieve a final concentration of 2.5×10^3 CFU/mL once added to the microtiter plate as per CLSI guidelines (M27-A3, Vol. 28 No. 14).
(§3) Broth microtiter MIC challenge plates were prepared following CLSI guidelines (M27-A3, Vol. 28 No. 14). The original CLSI guidelines focused on reading Candida MICs after 48 h of incubation. As reading after only 24 h offers a clear advantage of patient care, QC limits are being established for all drugs at 24 h. That being said there are no known interpretive breakpoints for amphotericin B at 24 h and the current fluconazole interpretive breakpoints are based on a 48 h reading. The MICs for the test compounds were recorded at 48 h. All MIC determinations were achieved by visually comparing the growth found in the antibiotic challenged wells to that of the growth control.

[3] = system: C. krusei; test: Antifungal Activity Assay (broth microtiter MIC), C. krusei; format: cell-based, Candida krusei; details: Pichia kudriavzevii, ATCC6258, 48 h, ATCC 6258, 3 replicates, MIC recorded at 48 h, read-out: MIC, C. krusei ATCC 6258
Procedure: as §1, §2, §3

[4] = system: C. parapsilosis; test: Antifungal Activity Assay (broth microtiter MIC), C. parapsilosis; format: cell-based, Candida parapsilosis; details: Lodderomyces parapsilosis, ATCC22019, 48 h, ATCC 22019, 3 replicates, MIC recorded at 48 h, read-out: MIC, C. parapsilosis ATCC 22019
Procedure: as §1, §2, §3

[5] = target: fungal (fACC2) (UniProt Q00955); details: read-out: fACC2 (in vitro ACC2 Inhibition Assay, IC50), ADP-Glo, 5 nM ACC2, 20 μM ATP, 20 μM acetyl-CoA
Sequence of fungal (fACC2) (Q00955 whole entry): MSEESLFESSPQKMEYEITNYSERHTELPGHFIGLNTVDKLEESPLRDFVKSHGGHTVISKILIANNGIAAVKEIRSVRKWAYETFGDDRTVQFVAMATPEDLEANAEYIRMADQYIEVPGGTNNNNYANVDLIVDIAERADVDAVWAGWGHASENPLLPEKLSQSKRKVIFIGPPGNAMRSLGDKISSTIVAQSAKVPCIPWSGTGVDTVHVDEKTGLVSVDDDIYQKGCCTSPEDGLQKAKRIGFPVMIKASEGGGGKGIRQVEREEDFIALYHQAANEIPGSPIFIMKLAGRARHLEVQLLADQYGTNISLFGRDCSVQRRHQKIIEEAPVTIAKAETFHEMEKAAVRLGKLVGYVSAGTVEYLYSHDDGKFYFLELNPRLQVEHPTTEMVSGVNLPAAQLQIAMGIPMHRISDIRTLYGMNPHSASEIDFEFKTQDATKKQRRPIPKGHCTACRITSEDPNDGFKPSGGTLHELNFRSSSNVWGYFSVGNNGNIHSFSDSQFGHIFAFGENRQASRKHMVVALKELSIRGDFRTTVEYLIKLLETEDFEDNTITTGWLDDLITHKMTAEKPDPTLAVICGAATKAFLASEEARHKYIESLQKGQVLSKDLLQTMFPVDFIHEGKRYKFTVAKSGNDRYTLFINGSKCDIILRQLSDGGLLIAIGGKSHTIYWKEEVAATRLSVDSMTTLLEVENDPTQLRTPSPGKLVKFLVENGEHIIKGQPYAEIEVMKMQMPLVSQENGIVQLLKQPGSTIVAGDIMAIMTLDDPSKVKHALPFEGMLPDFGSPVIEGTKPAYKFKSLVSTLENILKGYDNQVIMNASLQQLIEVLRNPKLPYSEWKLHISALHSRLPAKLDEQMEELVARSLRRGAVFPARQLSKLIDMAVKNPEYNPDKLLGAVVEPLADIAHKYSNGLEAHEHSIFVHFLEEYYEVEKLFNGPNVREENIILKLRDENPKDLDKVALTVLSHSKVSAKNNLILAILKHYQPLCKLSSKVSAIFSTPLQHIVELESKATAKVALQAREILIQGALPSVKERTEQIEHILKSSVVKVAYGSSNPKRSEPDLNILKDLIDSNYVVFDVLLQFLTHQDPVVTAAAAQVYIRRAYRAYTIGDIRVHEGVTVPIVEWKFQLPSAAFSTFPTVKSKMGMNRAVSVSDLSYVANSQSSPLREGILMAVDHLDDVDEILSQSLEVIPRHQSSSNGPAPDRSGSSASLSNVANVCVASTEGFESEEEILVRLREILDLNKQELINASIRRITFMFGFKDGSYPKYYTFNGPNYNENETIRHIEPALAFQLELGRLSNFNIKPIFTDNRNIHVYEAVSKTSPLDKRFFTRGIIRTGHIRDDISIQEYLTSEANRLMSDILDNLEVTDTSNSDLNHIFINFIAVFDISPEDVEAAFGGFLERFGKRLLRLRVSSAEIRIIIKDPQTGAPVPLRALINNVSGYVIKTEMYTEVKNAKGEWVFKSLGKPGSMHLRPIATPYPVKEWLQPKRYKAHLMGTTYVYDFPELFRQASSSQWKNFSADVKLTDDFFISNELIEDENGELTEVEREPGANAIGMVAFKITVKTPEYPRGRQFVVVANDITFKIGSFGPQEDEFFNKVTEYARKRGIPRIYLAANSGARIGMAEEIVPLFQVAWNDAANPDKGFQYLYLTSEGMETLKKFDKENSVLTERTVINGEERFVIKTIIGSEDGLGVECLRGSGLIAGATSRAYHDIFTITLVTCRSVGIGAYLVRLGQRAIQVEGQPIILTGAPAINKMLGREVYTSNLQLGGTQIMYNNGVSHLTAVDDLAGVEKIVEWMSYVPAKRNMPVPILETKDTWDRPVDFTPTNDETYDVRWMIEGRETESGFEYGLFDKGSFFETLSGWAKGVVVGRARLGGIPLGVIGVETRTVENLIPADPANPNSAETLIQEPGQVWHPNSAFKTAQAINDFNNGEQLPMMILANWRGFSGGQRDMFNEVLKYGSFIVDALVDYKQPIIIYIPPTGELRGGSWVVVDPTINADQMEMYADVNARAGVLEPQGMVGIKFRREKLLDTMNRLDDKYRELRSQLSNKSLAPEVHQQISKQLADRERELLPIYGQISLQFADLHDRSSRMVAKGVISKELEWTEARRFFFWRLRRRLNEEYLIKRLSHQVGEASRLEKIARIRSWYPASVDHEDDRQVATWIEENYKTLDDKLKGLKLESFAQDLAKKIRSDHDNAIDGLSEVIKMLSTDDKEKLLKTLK

Sequence of human (hACC2) (O00763 whole entry): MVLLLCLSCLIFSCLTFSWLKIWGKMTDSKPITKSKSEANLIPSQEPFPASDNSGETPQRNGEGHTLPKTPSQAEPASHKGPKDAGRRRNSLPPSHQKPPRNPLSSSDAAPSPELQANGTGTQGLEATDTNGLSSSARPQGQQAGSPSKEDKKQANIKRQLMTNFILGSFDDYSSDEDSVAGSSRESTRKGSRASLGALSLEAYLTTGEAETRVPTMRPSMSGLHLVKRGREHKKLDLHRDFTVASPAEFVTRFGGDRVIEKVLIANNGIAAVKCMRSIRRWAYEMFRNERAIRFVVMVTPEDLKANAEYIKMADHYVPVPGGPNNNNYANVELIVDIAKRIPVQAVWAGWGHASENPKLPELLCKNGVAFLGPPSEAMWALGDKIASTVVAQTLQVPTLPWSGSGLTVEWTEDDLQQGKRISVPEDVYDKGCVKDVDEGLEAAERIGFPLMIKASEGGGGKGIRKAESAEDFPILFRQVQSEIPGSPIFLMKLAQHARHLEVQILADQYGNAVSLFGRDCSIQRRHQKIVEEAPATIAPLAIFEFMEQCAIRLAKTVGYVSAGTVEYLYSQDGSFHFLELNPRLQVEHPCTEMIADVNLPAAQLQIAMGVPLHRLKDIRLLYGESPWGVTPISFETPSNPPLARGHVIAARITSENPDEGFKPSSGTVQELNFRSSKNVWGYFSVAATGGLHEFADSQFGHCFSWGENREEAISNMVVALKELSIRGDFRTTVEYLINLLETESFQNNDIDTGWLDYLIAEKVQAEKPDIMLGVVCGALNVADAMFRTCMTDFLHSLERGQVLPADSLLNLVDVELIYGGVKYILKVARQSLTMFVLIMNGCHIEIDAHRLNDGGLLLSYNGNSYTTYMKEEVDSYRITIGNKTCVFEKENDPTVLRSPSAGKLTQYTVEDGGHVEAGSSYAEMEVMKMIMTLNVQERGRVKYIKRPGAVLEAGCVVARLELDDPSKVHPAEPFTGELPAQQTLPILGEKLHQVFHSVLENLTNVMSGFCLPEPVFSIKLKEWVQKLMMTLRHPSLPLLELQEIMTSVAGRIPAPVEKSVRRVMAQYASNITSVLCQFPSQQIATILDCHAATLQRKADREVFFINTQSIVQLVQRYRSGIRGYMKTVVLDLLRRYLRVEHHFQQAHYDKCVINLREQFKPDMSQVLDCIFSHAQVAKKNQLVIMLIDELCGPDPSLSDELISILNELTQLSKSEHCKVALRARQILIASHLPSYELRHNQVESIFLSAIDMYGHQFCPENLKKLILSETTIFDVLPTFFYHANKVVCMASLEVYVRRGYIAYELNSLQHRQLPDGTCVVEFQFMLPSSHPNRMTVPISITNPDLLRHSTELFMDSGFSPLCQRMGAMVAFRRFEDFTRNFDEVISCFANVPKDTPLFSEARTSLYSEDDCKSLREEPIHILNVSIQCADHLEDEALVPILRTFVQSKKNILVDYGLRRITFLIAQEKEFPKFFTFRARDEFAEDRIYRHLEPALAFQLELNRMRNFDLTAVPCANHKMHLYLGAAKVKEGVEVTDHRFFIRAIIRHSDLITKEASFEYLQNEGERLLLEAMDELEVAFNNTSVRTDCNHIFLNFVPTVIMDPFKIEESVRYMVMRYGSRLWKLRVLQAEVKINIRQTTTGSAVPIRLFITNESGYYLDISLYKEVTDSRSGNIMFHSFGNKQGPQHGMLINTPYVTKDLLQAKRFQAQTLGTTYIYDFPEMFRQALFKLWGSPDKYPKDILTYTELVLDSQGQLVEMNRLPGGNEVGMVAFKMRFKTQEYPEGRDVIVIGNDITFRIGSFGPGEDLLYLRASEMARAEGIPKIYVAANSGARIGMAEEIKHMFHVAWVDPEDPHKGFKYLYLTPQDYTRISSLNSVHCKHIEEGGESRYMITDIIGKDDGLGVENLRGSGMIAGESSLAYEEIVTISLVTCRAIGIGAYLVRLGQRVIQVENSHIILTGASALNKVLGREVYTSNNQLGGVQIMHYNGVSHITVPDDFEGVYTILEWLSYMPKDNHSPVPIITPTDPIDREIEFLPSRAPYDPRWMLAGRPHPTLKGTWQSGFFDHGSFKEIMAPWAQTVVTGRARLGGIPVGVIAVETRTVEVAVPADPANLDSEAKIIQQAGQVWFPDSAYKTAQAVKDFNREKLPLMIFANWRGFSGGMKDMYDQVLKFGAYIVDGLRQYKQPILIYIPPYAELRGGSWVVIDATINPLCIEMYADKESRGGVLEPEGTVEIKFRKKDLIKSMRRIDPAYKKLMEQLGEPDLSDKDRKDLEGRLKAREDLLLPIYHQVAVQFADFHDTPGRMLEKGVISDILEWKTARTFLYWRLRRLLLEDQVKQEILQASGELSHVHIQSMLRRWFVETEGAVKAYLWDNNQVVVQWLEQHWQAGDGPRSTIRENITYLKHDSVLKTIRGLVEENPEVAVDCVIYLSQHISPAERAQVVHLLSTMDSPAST

| Compound | IC50 ([1]; Table 2a) | IC50 ([1]; Table 2b, additional results) | MIC ([2]; Table 3a) | MIC ([2]; Table 3b (additional results)) | MIC ([3]; Table 3a) | MIC ([3]; Table 3b (additional results)) | MIC ([4]; Table 3a) | MIC ([4]; Table 3b (additional results)) | IC50 ([5]; Table 2a) | IC50 ([5]; Table 2b, additional results) |
| --- | --- | --- | --- | --- | --- | --- | --- | --- | --- | --- |
| Cc1c(-n2nccn2)sc2c1c(=O)n(C(C)(C)C(=O)NC(C)C)c(=O)n2C[C@H](OC1CCOCC1)c1cc(F)ccc1OCCO [Compound I-111] | 1 to 5 nM | 1 to 5 nM | 0.25 to 1 µg/mL (≈ 0.38 to 1.52 µM) | 0.06 to 0.249 µg/mL (≈ 0.0911 to 0.378 µM) | 0.25 to 1 µg/mL (≈ 0.38 to 1.52 µM) | 0.06 to 0.249 µg/mL (≈ 0.0911 to 0.378 µM) | 0.25 to 1 µg/mL (≈ 0.38 to 1.52 µM) | 0.25 to 1 µg/mL (≈ 0.38 to 1.52 µM) | 0.4 to 1 nM | 0.3 to 1 nM |
| Cc1c(-n2nccn2)sc2c1c(=O)n(C(C)(C)C(=O)N1CCCC1)c(=O)n2C[C@H](OC1CCOCC1)c1cc(F)ccc1OCCO [Compound I-112] | 1 to 5 nM | 1 to 5 nM | 0.25 to 1 µg/mL (≈ 0.373 to 1.49 µM) | 0.25 to 1 µg/mL (≈ 0.373 to 1.49 µM) | 0.25 to 1 µg/mL (≈ 0.373 to 1.49 µM) | 0.25 to 1 µg/mL (≈ 0.373 to 1.49 µM) | 0.25 to 1 µg/mL (≈ 0.373 to 1.49 µM) | 1.01 to 2 µg/mL (≈ 1.51 to 2.98 µM) | 0.4 to 1 nM | 0.3 to 1 nM |
| COc1ccc(F)cc1[C@H](Cn1c(=O)n(C(C)(C)C(=O)N2CCCC2)c(=O)c2c(C)c(-n3nccn3)sc21)OCC(O)C(F)(F)F (stereo partly shown) [Compound I-113] | 1 to 5 nM | 1 to 5 nM | 0.25 to 1 µg/mL (≈ 0.374 to 1.5 µM) | > 4.01 µg/mL | 0.25 to 1 µg/mL (≈ 0.374 to 1.5 µM) | 2.01 to 4 µg/mL (≈ 3.01 to 5.98 µM) | 1.1 to 2 µg/mL (≈ 1.65 to 2.99 µM) | 1.01 to 2 µg/mL (≈ 1.51 to 2.99 µM) | 1 to 5 nM | 1 to 5 nM |
| C=CCN(C)C(=O)C(C)(C)n1c(=O)c2c(C)c(-n3nccn3)sc2n(C[C@H](OC(C)C)c2cc(F)ccc2OC)c1=O [Compound I-115] | 5 to 10 nM | 5 to 10 nM | 2.1 to 4 µg/mL (≈ 3.51 to 6.68 µM) | 1.01 to 2 µg/mL (≈ 1.69 to 3.34 µM) | 1.1 to 2 µg/mL (≈ 1.84 to 3.34 µM) | 1.01 to 2 µg/mL (≈ 1.69 to 3.34 µM) | 1.1 to 2 µg/mL (≈ 1.84 to 3.34 µM) | > 4.01 µg/mL | 1 to 5 nM | 1 to 5 nM |
